Test results as given in patent US20180213776A1, “COMPOSITIONS FOR C[…] POPULATIONS” (PRESIDENT AND FELLOWS OF HARVARD COLLEGE, priority 2015, published 2018).

Tests used:
[1] = test system: An. gambiae females; assay: Mating success (insemination) after topical DBH application; assay type: in vivo
Description: (§1) An. gambiae mosquitoes of the G3 strain were employed in all experiments. All mosquitoes were maintained under standard insectary conditions (26-28° C., 65-80% relative humidity, 12:12 hours light/dark photoperiod).
(§2) The DBH compound methoxyfenozide (0.5 μl of a 0.4% solution re-suspended in acetone) (Sigma-Aldrich, 32507) was topically applied to the thorax of An. gambiae females anesthetized on ice using a micropipette. Mating success, egg development after blood feeding and longevity were determined relative to acetone-treated controls. Females were 2 days old at the time of application, and each experiment was replicated twice. The effects of methoxyfenozide on mating success were determined by adding DBH-treated and control virgin females into separate cages containing a large excess of 5 day-old virgin males, 24 hours following topical application. 48 hours later successfully inseminated (mated) females from each cage were determined via dissection and the presence of sperm in the spermatheca. […] Egg development was evaluated 3 days later upon dissection of the ovaries.
(§3) A mating effect experiment was comprised of an unexposed and exposed group with cases defined as those who mated. The efficacy of the mating effect was defined as the prevented fraction in exposed, i.e. one minus the risk ratio. […]

[2] = test system: An. gambiae females; assay: Egg development after blood feeding; assay type: in vivo
Description: as §1, §2, §3

[3] = test system: An. gambiae females; assay: Longevity / mortality after DBH exposure; assay type: in vivo
Description: as §1
For the longevity experiments, DBH-treated and control females were maintained in cups and supplied ad libitum with a 10% sucrose solution and water. Mortality rates after DBH/acetone exposure were recorded daily for 2 weeks, encompassing the period needed for mosquitoes to become infectious.
Day post-exposure was stratified to account for the time varying nature in the mortality effect experiment. For each day, there is the number of exposed and unexposed mosquitoes surviving to that day (risk set), and the number in each group surviving through that day. Using the risk set in day i, the relative risk of surviving through day i (RRi) is estimated, comparing the exposed to the unexposed. The efficacy for the mortality was defined as one minus RRi for day i. The confidence interval for the relative risk of survival was estimated using a Normal approximation of ln(RRi), with standard error:
(§4) At the highest dose (2 μg), only 7.5% of females who fully engorged on an infectious blood meal were positive for oocysts, corresponding to an 87% reduction in infection prevalence relative to controls.

[4] = test system: An. gambiae females; assay: Dose dependency of egg laying (oviposition); assay type: in vivo; conditions: for individuals laying eggs: 24 hours prior to blood feeding, control 100%
Description: as §1
Mated females were tested for their ability to develop and lay eggs when exposed to DBH 24 hours prior to blood feeding at 5 different doses ranging in a 2-fold dilution series from about 2 μg to about 0.125 μg per mosquito, respectively. One hundred percent (100%) of the control females oviposited after a blood meal. […] An ED50 dose of […] (0.08-0.13 95% CI) was determined from the dose-response curve (slope of 2.32, R=0.993). Moreover, even in cases where females oviposited, a significant reduction in the number of eggs laid was detected at the three highest doses (e.g., 2 μg; 1 μg; and 0.5 μg), with a median egg number of zero compared to a median of 91.5 eggs in the control group.

[5] = test system: primary ovarian follicles; assay: TUNEL assay of ovaries (apoptosis of ovarian follicles); assay type: in vivo, An. gambiae; conditions: 24 hours after DBH exposure
Excerpt: Induction of autogenous egg development after exposure was not observed.

[6] = test system: P. falciparum (NF54 strain); assay: P. falciparum infection (oocysts) after infectious blood meal; assay type: in vivo
Description: as §4

[7] = test system: Aedes species; assay: Preliminary data on eggs of Aedes species; assay type: in vivo
[8] = test system: mammals; conditions: cited from earlier work

methoxyfenozide [DBH]
efficacy: reduced mating success (reduction) ([1]; prevented fraction in exposed, 68% CI 58-73%): 67% | females successfully inseminated by males (sperm in the spermatheca) ([1]; treated once, 0.5 μl of 0.4% solution topically to thorax, controls 86%): 29% | egg development after blood feeding ([2]; 0.5 μl of 0.4% solution topical, blood fed 24 hours after application, ovaries dissected 3 days later): completely abolished | efficacy: impaired egg development (reduction) ([2]; prevented fraction in exposed, add-one smoothing, 68% CI 94-99%): 98% | median survival time ([3]; 0.125 μg, control 19 days): 16 days | median survival time ([3]; 2 μg, control 19 days): 11 days | mortality over 14 days ([3]; 0.5 μl of 0.4% solution topical, controls 10%): ~100% | median survival time ([3]; 0.5 μl of 0.4% solution topical, recorded 2 weeks): 8 days | efficacy: maximum increase in daily mortality rate ([3]; day 8 post exposure, 68% CI 37-72%): 60% | reduction in median survival time compared to controls ([3]; highest dose (2 μg)): eight | females with no eggs developed in the ovaries despite fully engorging on blood ([4]; all DBH-exposed groups, upon dissection): 98.7% | individuals laying eggs ([4]; highest dose 2 μg per mosquito): 10.9% | induction of autogenous egg development after exposure ([4]; in vivo): not observed | individuals laying eggs ([4]; median dose 0.5 μg per mosquito): 47.4% | median egg number laid ([4]; three highest doses (2 μg; 1 μg; 0.5 μg), control median 91.5 eggs): zero | TUNEL: apoptosis of primary ovarian follicles [5]: extensive fragmentation of chromatin, indicative of apoptosis | reduction in infection prevalence relative to controls ([6]; 2 μg): 87% | females positive for oocysts ([6]; 2 μg, 7 days post-infectious blood meal, control 58.5%): 7.5% | intensity of infection in females that developed oocysts ([6]; in vivo): not significantly affected | oocyst prevalence ([6]; low dose 0.125 μg, control 58.5%): 50.7% | females failed to develop an infection ([6]; median dose 0.5 μg): 25.8% | reduction in prevalence ([6]; median dose 0.5 μg): 56% | effect on eggs [7]: deformed eggs | carcinogenicity [8]: non-carcinogenic | toxicity to mammals [8]: not toxic to mammals unless used at extremely high concentrations
